Values after ≈ are worked out from the molar mass of the structure shown. Where a SMILES comes first, the peptide text is derived from it. [ ]: non-standard residue; d: D form. The star is where a group is joined. PEG8 = NCCOCCOCCOCCOCCOCCOCCOCCOCCC(=O)O; Myristoyl = CCCCCCCCCCCCCC(=O)*
Tests used:
[1] = tested on: S. aureus ATCC6538; assay type: cell-based
Procedure: (§1) The MICs of the self‐assembling peptide nanoparticles were determined using the modified broth microdilution method.^[ [46] ^] The bacteria were resuspended in a logarithmic growth phase in a Mueller–Hinton broth (MHB) medium, the optical density (OD) at a wavelength of 600 nm was adjusted to ≈ 0.4, and the suspension was diluted 1000 times with MHB. In a 96‐well plate, the peptides were diluted via multiple dilutions using a 0.2% bovine serum albumin solution to a concentration range of 0.25 × 10^−6–128 × 10^−6 M. Subsequently, the diluted bacterial solution and peptide solution were mixed in a 1:1 ratio in a 96‐well plate and incubated at 37 °C. After 18–24 h, the absorbance at 492 nm was measured using a microplate reader. The MIC value was defined as the lowest peptide nanoparticle concentration without bacterial growth. Each test was performed in duplicate and repeated three times.

[2] = tested on: P. aeruginosa 27853; assay type: cell-based
Procedure: as §1

[3] = tested on: E. coli ATCC25922; assay type: cell-based
Procedure: as §1

[4] = tested on: HEK293T cells; assay: Cytotoxicity assay (MTT; SYTO9/PI live/dead imaging); assay type: cell-based, Human; conditions: 64 × 10^−6 M, 2 h, 37 °C, laser confocal microscope
Procedure: 3‐(4,5‐dimethylthiazol‐2‐yl)‐2,5‐diphenyltetrazolium bromide (MTT) dye was used to determine the cytotoxicity of the peptide nanoparticles.^[ [47] ^] Human embryonic kidney (HEK) 293T cells were seeded into 96‐well plates at a concentration of (1–2) × 10^5 cells per well in high glucose DMEM and placed in a cell incubator (5% CO2, 37 °C) for 24 h. After discarding the medium, peptides (100 µL) were added with a concentration range of 0.125 × 10^−6–64 × 10^−6 M to wells 1–10 of a 96‐well plate and incubated at 37 ℃ for 2 h. Samples without peptides were used as positive controls and samples without cells were used as negative controls. Subsequently, 20 µL of MTT (5 mg mL^−1) was added to each well before another 4 h of incubation. After discarding the supernatant, 150 µL of dimethyl sulfoxide was added to each well of the 96‐well plate, to fully dissolve the crystals; then, the absorbance at a wavelength of 570 nm was measured using a microplate reader. Each test was performed in duplicate and repeated three times. Cell viability was expressed as a percentage. For laser confocal microscope samples, after the peptides (the final concentration is 64 × 10^−6 M) were added to a 96‐well plate, the final concentration of 5 × 10^−6 M SYTO9 and 20 µg mL^−1 PI dye was added to a 96‐well plate, and incubated at 37 ℃ for 2 h. Cells were imaged using a laser scanning confocal microscope. A sample without peptide nanoparticles was used as a control.

[5] = tested on: trypsin; assay: Protease stability assay (MIC and RP-HPLC read-out); assay type: in vitro ADME; conditions: equal volumes of peptide 2560 × 10^−6 M and trypsin 8 mg mL^−1, 37 °C, 1 h; MIC vs E. coli ATCC25922 and S. aureus ATCC6538; n = 6
Procedure: (§2) An equal volume of peptide nanoparticles (2560 × 10^−6 M) and pepsin, trypsin, or chymotrypsin (8 mg mL^−1) was mixed and incubated at 37 °C for 1 h. Then, the MICs of peptide nanoparticles against E. coli ATCC25922 and S. aureus ATCC6538 were measured using the above‐mentioned method. Each test was performed in duplicate and repeated three times.
(§3) For RP‐HPLC, an equal volume of peptide nanoparticles (2560 × 10^−6 M) and pepsin, trypsin, or chymotrypsin (4 or 8 mg mL^−1) was mixed. The mixed solution was incubated at 37 °C for a predetermined time (0, 2, 4, or 8 h), and the protease was completely inactivated by heating in boiling water at 100 °C for 5 min. The concentration of peptide nanoparticles in the samples was then diluted to 256 × 10^−6 M, and the samples were analyzed using an RP‐HPLC system equipped with an Acchorm Unitary C18 column (5 µm, 100 Å, 4.6 mm × 250 mm). A gradient of 42% to 96% acetonitrile in water with 0.1% trifluoroacetic acid was used as the mobile phase at a flow rate of 0.8 mL min^−1. UV detection was performed at a wavelength of 214 nm.

[6] = biological target: T1, chymotrypsin (Bos taurus, UniProt P00766); assay: as above; assay type: in vitro ADME; conditions: equal volumes of peptide 2560 × 10^−6 M and chymotrypsin 8 mg mL^−1, 37 °C, 1 h; MIC vs E. coli ATCC25922 and S. aureus ATCC6538; n = 6
T1 construct: purchased Sigma-Aldrich (China)
Procedure: as §2, §3

[7] = biological target: T2, pepsin (Sus scrofa, UniProt P00791); assay: as above; assay type: in vitro ADME; conditions: for Antibacterial activity (MIC) after treatment with pepsin: equal volumes of peptide 2560 × 10^−6 M and pepsin 8 mg mL^−1, 37 °C, 1 h, MIC vs E. coli ATCC25922 and S. aureus ATCC6538, n = 6; for RP-HPLC peak shape and area after treatment with pepsin: pepsin 4 or 8 mg mL^−1, 37 °C, 8 h vs 0 h control, C18 RP-HPLC, UV 214 nm
T2 construct: purchased Sigma-Aldrich (China)
Procedure: as §2, §3

[8] = tested on: porcine red blood cells; assay type: cell-based; conditions: pH 7.4
Procedure: Fresh porcine red blood cells were used to study the hemolysis of self‐assembled peptide nanoparticles.^[ [48] ^] The red blood cells were collected by washing with PBS (10 × 10^−3 M, pH 7.4) until the supernatant became clear. A 10% v/v red blood cell suspension was prepared with PBS, and peptide nanoparticles with a final concentration of 128 × 10^−6 M were added to the suspension (1 mL). After gentle incubation at 37 °C for 2 h, the cells were centrifuged at 6000 rpm for 5 min, and the absorbance of the supernatant was measured at 570 nm. Two red blood cell suspensions (one containing 0.2% Triton X‐100, the other without peptide nanoparticles) were used as positive and negative controls, respectively. The hemolysis of each sample was calculated, and images were collected.

[9] = tested on: C57BL/6 mice; conditions: mouse, in vivo, ip
Procedure: Healthy female C57BL/6 mice (weight is about 20 g) were randomly divided into five groups with six replicates per group. Mice were acclimated for 3 d in an environment of suitable temperature (20–24 °C), humidity (50–60%), and alternating light and dark. During the assay, the first group of mice was intraperitoneally injected with 150 µL of saline (once daily), and the second to fifth groups of mice were intraperitoneally injected with 150 µL nanoparticles NPs1 or NPs2 at doses of 15 and 30 mg kg^−1 (once daily). Continuous injection was given for 7 days. At 12 h after the last administration, the mice were euthanized using mild ether anesthesia. Blood samples were taken from the mice's orbital vein, and serum was analyzed using an automatic biochemical analyzer. The kidneys and livers of the mice were taken, weighed, and fixed with 4% paraformaldehyde; then, histological analysis was performed via H&E staining.

[10] = tested on: C. rodentium DBS100; assay type: cell-based
Procedure: as §1

[11] = tested on: S.epidermidis 49134; assay type: cell-based
Procedure: as §1

[12] = tested on: S. aureus CVCC1882; assay type: cell-based
Procedure: as §1

T2 sequence (P00791 60-385): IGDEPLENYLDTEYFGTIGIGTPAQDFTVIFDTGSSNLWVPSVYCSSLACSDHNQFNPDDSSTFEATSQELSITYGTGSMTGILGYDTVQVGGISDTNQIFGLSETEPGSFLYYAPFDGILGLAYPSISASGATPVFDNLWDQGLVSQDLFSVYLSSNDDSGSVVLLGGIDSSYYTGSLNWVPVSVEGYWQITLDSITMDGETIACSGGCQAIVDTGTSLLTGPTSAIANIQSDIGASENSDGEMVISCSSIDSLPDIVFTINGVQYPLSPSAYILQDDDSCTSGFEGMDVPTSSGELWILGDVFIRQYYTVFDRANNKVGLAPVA

| Compound | MIC S. aureus 6538 [1] | MIC P. aeruginosa 27853 [2] | MIC E. coli 25922 [3] | Live/dead (SYTO9/PI) imaging of HEK293T cells [4] | Antibacterial activity (MIC) after treatment with trypsin [5] | Antibacterial activity (MIC) after treatment with chymotrypsin [6] | Antibacterial activity (MIC) after treatment with pepsin [7] | RP-HPLC peak shape and area after treatment with pepsin [7] | MHC [8] | Side effects on mice [9] | MIC C. rodentium DBS100 [10] | MIC S.epidermidis 49134 [11] | MIC S. aureus 1882 [12] |
| --- | --- | --- | --- | --- | --- | --- | --- | --- | --- | --- | --- | --- | --- |
| CCCCCCCCCCCCCC(=O)N1CCC[C@H]1C(=O)N[C@@H](Cc1ccccc1)C(=O)N1CCC[C@H]1C(=O)N[C@@H](Cc1ccccc1)C(=O)N1CCC[C@H]1C(=O)N[C@@H](Cc1ccccc1)C(=O)N1CCC[C@H]1C(=O)N[C@@H](CCCCNC(=O)CCOCCOCCOCCOCCOCCOCCOCCOCCN)C(=O)N1CCC[C@H]1C(=O)N[C@@H](CCCCN)C(=O)N1CCC[C@H]1C(=O)N[C@@H](CCCCN)C(=O)N1CCC[C@H]1C(=O)N[C@@H](CCCCN)C(=O)N1CCC[C@H]1C(=O)N[C@@H](CCCCN)C(=O)N1CCC[C@H]1C(=O)N[C@@H](CCCCN)C(=O)N1CCC[C@H]1C(N)=O [NPs1] (Myristoyl-PFPFPFPK(PEG8)PKPKPKPKPKP-NH2) | 5.3 ± 1.9 µM (≈ 15 µg/mL) | 12.0 ± 4.0 µM (≈ 34 µg/mL) | 9.3 ± 3.0 µM (≈ 26.3 µg/mL) | only led to a few cell deaths | remained essentially unchanged | remained essentially unchanged | remained essentially unchanged | remained intact | > 128 | negligible |  |  |  |
| CCCCCCCCCCCCCC(=O)N1CCC[C@H]1C(=O)N[C@@H](Cc1ccccc1)C(=O)N1CCC[C@H]1C(=O)N[C@@H](Cc1ccccc1)C(=O)N1CCC[C@H]1C(=O)N[C@@H](Cc1ccccc1)C(=O)N1CCC[C@H]1C(=O)N[C@@H](CCCCN)C(=O)N1CCC[C@H]1C(=O)N[C@@H](CCCCN)C(=O)N1CCC[C@H]1C(=O)N[C@@H](CCCCN)C(=O)N1CCC[C@H]1C(=O)N[C@@H](CCCCN)C(=O)N1CCC[C@H]1C(=O)N[C@@H](CCCCN)C(=O)N1CCC[C@H]1C(=O)N[C@@H](CCCCNC(=O)CCOCCOCCOCCOCCOCCOCCOCCOCCN)C(=O)N1CCC[C@H]1C(N)=O [NPs2] (Myristoyl-PFPFPFPKPKPKPKPKPK(PEG8)P-NH2) | 6.7 ± 1.9 µM (≈ 19 µg/mL) | 13.3 ± 3.8 µM (≈ 37.7 µg/mL) | 8 µM (≈ 22.7 µg/mL) | only led to a few cell deaths | remained essentially unchanged | remained essentially unchanged | remained essentially unchanged | remained intact | > 128 | negligible | 6.7 ± 1.9 µM (≈ 19 µg/mL) | 9.3 ± 3.0 µM (≈ 26.3 µg/mL) | 10.0 ± 4.5 µM (≈ 28.3 µg/mL) |
| CCCCCCCCCCCCCC(=O)N1CCC[C@H]1C(=O)N[C@@H](Cc1ccccc1)C(=O)N1CCC[C@H]1C(=O)N[C@@H](Cc1ccccc1)C(=O)N1CCC[C@H]1C(=O)N[C@@H](Cc1ccccc1)C(=O)N1CCC[C@H]1C(=O)N[C@@H](CCCCN)C(=O)N1CCC[C@H]1C(=O)N[C@@H](CCCCN)C(=O)N1CCC[C@H]1C(=O)N[C@@H](CCCCN)C(=O)N1CCC[C@H]1C(=O)N[C@@H](CCCCN)C(=O)N1CCC[C@H]1C(=O)N[C@@H](CCCCN)C(=O)N1CCC[C@H]1C(=O)N[C@@H](CCCCN)C(=O)N1CCC[C@H]1C(=O)NCCOCCOCCOCCOCCOCCOCCOCCOCCC(N)=O [NPs3] (Myristoyl-PFPFPFPKPKPKPKPKPKP[PEG8]-NH2) | 7.3 ± 1.5 µM (≈ 20.7 µg/mL) | 21.3 ± 7.5 µM (≈ 60.3 µg/mL) | 9.3 ± 3.0 µM (≈ 26.3 µg/mL) | only led to a few cell deaths |  |  |  |  | > 128 |  |  | 9.3 ± 3.0 µM (≈ 26.3 µg/mL) | 14.7 ± 3.0 µM (≈ 41.6 µg/mL) |

From article PMC9109057, “Designing Self‐Assembling Chimeric Peptide Nanoparticles with High Stability for Combating Piglet Bacterial Infections” (Advanced Science, 2022)
